Reference: US10550143B2, “C,O-spiro aryl glycoside compounds, preparation therefor and use thereof” (SHANGHAI INSTITUTE OF MATERIA MEDICA, CHINESE ACADEMY OF …, priority 2015, dated 2020)
Each block holds one compound with its values, some of them ahead of it.

What was measured:
[1] = target: T1, human sodium-glucose cotransporter 2 (SGLT2) (Homo sapiens, UniProt P31639); experiment: In vitro SGLT2 inhibition, methyl-α-D-[U-14C]glucopyranoside uptake in NIH3T3-hSGLT2 cells; type: cell-based; conditions: for inhibition at 0.01 µM: SGLT2, 10 nM, read-out: % Inhibition rate ± SD 10 nM; for inhibition at 0.1 µM: SGLT2, 100 nM, read-out: % Inhibition rate ± SD 100 nM
T1 construct: expressed in transfected cells; host or cells: NIH3T3 (mouse fibroblast) cells expressing hSGLT2
T1 sequence (P31639 1-672): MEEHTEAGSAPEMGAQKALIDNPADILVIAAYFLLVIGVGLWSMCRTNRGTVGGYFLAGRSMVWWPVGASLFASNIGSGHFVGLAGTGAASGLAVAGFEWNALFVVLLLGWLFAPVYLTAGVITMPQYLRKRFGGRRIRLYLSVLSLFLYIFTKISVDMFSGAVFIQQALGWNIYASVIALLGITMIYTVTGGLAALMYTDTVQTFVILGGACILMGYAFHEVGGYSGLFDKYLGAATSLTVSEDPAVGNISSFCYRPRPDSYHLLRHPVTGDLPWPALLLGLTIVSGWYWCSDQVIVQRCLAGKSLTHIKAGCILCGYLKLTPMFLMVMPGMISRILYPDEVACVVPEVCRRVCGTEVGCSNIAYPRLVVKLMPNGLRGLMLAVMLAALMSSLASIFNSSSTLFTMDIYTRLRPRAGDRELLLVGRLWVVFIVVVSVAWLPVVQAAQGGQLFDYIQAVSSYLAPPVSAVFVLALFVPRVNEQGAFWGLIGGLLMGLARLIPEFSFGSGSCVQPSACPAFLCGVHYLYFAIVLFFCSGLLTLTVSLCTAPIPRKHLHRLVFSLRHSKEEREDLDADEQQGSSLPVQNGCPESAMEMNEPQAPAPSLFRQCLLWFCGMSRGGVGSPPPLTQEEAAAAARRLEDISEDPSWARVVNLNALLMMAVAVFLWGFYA
Experimental: Inhibition of the compounds of formula I against human sodium-glucose cotransporter 2 (SGLT2) was determined experimentally and the experimental procedures were carried out as reference^1.
Methyl-α-D-[U-^14C] glucopyranoside (Perkin Elmer) Dimethylsulfoxide (Genebase, Prod No: 0231)
(1) Primary screening of hSGLT2 are conducted with two concentrations, 100 nM and 10 nM;
SGLT2 transports D-glucose at 1:1 sodium-glucose ratio, glucose is replaced by the non-metabolic and isotope labeled methyl-aD-[U-^14C] glucopyranoside and methyl-aD-glucopyranoside, and the amount of isotope transferred into the cells was determined.
1) 0.2% gelatin in a 96-well plate was put in a 37° C. incubator for further use;
2) NIH3T3-hSGLT2 cells were injected into 96-well plates, 40000/well, and 100 μL culture medium per well:
3) the fluid was changed in the next day, and sodium butyrate was added into medium at a final concentration of 2 mM;
4) wash the cells with 100 μL of KRH—Na^+ for 3 times and incubate cells with 50 μL for 30 minutes. Cells were changed to 50 μL of compound in KRH—Na^+, uptake buffer (KRH—Na^+ and methyl-α-D-[U-^14C]glucopyranoside and ⅙ mM methyl-α-D-glucopyranoside at 10 μL per well) was added; KRH-acetylcholine solution was used as background control instead of KRH-Na^+
5) washed with 100 μL PBS for 3 times, dried, 50 μL lysate and 150 μL scintillation fluid were added, the membrane was covered and flattened, shaken on a shaker to mix thoroughly, centrifuged at 1500 rpm at 4° C. for 3 min, taken out and read;
6) the results were analyses.
The inhibition rate (% Inhibiton) of each sample at each concentration was calculated by dividing the value of the compound well value minus the background value by the value of the DMSO control well value minus the background value.
IC50 is calculated as follows: […]
The y value is the activity or inhibition percent, the x value is the concentration of the corresponding compound, top (the maximum y value of the curve), bottom (the minimum y value of the curve).

SD rats = experiment: Acute single administration, urinary glucose changes in SD rats; type: in vivo, rat; set-up: Urine glucose concentration / The total amount of glucose excreted: unit not given here; conditions: 1 mg/kg oral, after 24 h
Experimental: (1) Acutely Administering Compound to Observed the Urinary Glucose Changes in SD Rats
Thirty-eight male normal SD rats were selected and randomly divided into 5 groups according to body weight and blood glucose, 6-8 in each group. […] After oral gavage, the rats were placed in rats metabolic cages, and urine was collected after 24 h, and the urine volume was recorded, the urine sugar concentration was determined, and urinary sugar content was calculated according to the following formula. Urine content=urinary sugar concentration×urine volume
Glucose levels in urine are measured by the glucose assay kit.
Data were expressed as mean±standard deviation (x±s), and Student's t test was used for statistical analysis of the data, p<0.05 was considered statistically significant.

db/db mice = experiment: Chronic administration, random blood glucose in db/db mice; type: in vivo, mouse; conditions: for random blood glucose Pre: before administration; for Hypoglycemic rate % week 1 / Hypoglycemic rate % week 2 / Hypoglycemic rate % week 3 / Hypoglycemic rate % week 4: random blood glucose
Experimental: Oral gavage administrated, daily dose volume was 10 mL/kg, administered once daily. Administration time was 9: 00-10:00 daily, and the administration period was 5 weeks.
The random blood glucose of mice in the normal control group, model control group, test substance administration group and positive control group were determined on the 7th, 14th, 21st, 28th day (9: 00-10:00) every week after the first administration, and food was removed and after 6 hours of starvation, the fasting blood glucose in each group was measured. Free drinking during the hunger process. The rate of decrease of blood glucose was calculated according to the following formula: Average hypoglycemic rate %=(Blood glucose of model control group−Blood glucose of administration group)/Model control group×100%

inhibition at 0.01 µM [1]: 33.9 ± 14.1%
inhibition at 0.1 µM [1]: 50.4 ± 16.9%
SMILES: C#Cc1cc2c(cc1Cc1ccc(CC)s1)[C@]1(OC2)O[C@H](C)[C@@H](O)[C@H](O)[C@H]1O [Example A85, (1S,3′R,4′S,5′S,6′R)-5-ethynyl-6′-methyl-6-((5-ethylthienyl)-2-methyl)-3′,4′,5′,6′-tetrahydro-3H-spiro[isobenzofuran-1,2′-pyran]-3′,4′,5′-triol]

inhibition at 0.01 µM [1]: 4.8 ± 3.9%
inhibition at 0.1 µM [1]: 50.8 ± 7.5%
SMILES: C[C@H]1O[C@]2(OCc3cc(Cl)c(Cc4ccc5occc5c4)cc32)[C@H](O)[C@@H](O)[C@@H]1O [Example A106, (1S,3′R,4′S,5′S,6′R)-6-(benzofuran-5-ylmethyl)-5-chloro-6′-methyl-3′,4′,5′,6′-tetrahydro-3H-spiro[isobenzofuran-1,2′-pyran]-3′,4′,5′-triol]

inhibition at 0.01 µM [1]: 100.4 ± 0.9%
inhibition at 0.1 µM [1]: 96.2 ± 3.4%
SMILES: C[C@H]1O[C@]2(OCc3cc(Cl)c(Cc4ccc(C5(C#N)CC5)cc4)cc32)[C@H](O)[C@@H](O)[C@@H]1O [Example A108, 1-(4-(((1S,3′R,4′S,5′S,6′R)-5-chloro-3′,4′,5′-trihydroxy-6′-methyl-3′,4′,5′,6′-tetrahydro-3H-spiro[isobenzofuran-1,2′-pyran]-6-yl)methyl)phenyl)cyclopropane-1-formonitrile]

inhibition at 0.01 µM [1]: 86.8 ± 1.6%
inhibition at 0.1 µM [1]: 62.6 ± 7.2%
SMILES: C[C@H]1O[C@]2(OCc3cc(Cl)c(Cc4ccc(C5(C#N)CC5)s4)cc32)[C@H](O)[C@@H](O)[C@@H]1O [Example A109, 1-(5-(((1S,3′R,4′S,5′S,6′R)-5-chloro-3′,4′,5′-trihydroxy-6′-methyl-3′,4′,5′,6′-tetrahydro-3H-spiro[isobenzofuran-1,2′-pyran]-6-yl)methyl)thiophene-2-yl)cyclopropane-1-formonitrile]

inhibition at 0.01 µM [1]: 93 ± 5.9%
inhibition at 0.1 µM [1]: 71.5 ± 7.2%
SMILES: C[C@H]1O[C@]2(OCc3cc(Cl)c(Cc4ccc(C(F)(F)F)cc4)cc32)[C@H](O)[C@@H](O)[C@@H]1O [Example A110]

inhibition at 0.01 µM [1]: 46.2 ± 11.1%
inhibition at 0.1 µM [1]: 39.9 ± 10.8%
SMILES: C[C@H]1O[C@]2(OCc3cc(Cl)c(C(=O)c4ccc(C(F)(F)F)cc4)cc32)[C@H](O)[C@@H](O)[C@@H]1O [Example A111, ((1S,3′R,4′S,5′S,6′R)-5-chloro-3′,4′,5′-trihydroxy-6′-methyl-3′,4′,5′,6′-tetrahydro-3H-spiro[isobenzofuran-1,2′-pyran]-6-yl)(4-(trifluoromethyl)phenyl)ketone]

inhibition at 0.01 µM [1]: 34.9 ± 23%
inhibition at 0.1 µM [1]: 44.3 ± 15.6%
SMILES: C[C@H]1O[C@]2(OCc3cc(Cl)c(C(=O)c4ccc(C(F)(F)F)c(F)c4)cc32)[C@H](O)[C@@H](O)[C@@H]1O [Example A112, ((1S,3′R,4′S,5′S,6′R)-5-chloro-3′,4′,5′-trihydroxy-6′-methyl-3′,4′,5′,6′-tetrahydro-3H-spiro[isobenzofuran-1,2′-pyran]-6-yl)(3-fluoro-4-(trifluoromethyl)phenyl)ketone]

inhibition at 0.01 µM [1]: 20.9 ± 16.3%
inhibition at 0.1 µM [1]: 22.5 ± 10.7%
SMILES: CCc1ccc(C(=O)c2cc3c(cc2Cl)CO[C@]32O[C@H](C)[C@@H](O)[C@H](O)[C@H]2O)s1 [Example A113, ((1S,3′R,4′S,5′S,6′R)-5-chloro-3′,4′,5′-trihydroxy-6′-methyl-3′,4′,5′,6′-tetrahydro-3H-spiro[isobenzofuran-1,2′-pyran]-6-yl)(5-ethylthiophene-2-yl)ketone]

inhibition at 0.01 µM [1]: 78.1 ± 5.1%
inhibition at 0.1 µM [1]: 53.8 ± 5.5%
SMILES: CCOCCc1ccc(Cc2cc3c(cc2Cl)CO[C@]32O[C@H](C)[C@@H](O)[C@H](O)[C@H]2O)s1 [Example A115, (1S,3′R,4′S,5′S,6′R)-5-chloro-6-((5-(2-ethoxyethyl)thiophene-2-yl)methyl)-6′-methyl-3′,4′,5′,6′-tetrahydro-3H-spiro[isobenzofuran-1,2′-pyran]-3′,4′,5′-triol]

inhibition at 0.01 µM [1]: 89.4 ± 1.5%
inhibition at 0.1 µM [1]: 62.3 ± 6%
SMILES: CCCOCCc1ccc(Cc2cc3c(cc2Cl)CO[C@]32O[C@H](C)[C@@H](O)[C@H](O)[C@H]2O)s1 [Example A116, (1S,3′R,4′S,5′S,6′R)-5-chloro-6-((5-(2-propoxyethyl)thiophene-2-yl)methyl)-6′-methyl-3′,4′,5′,6′-tetrahydro-3H-spiro[isobenzofuran-1,2′-pyran]-3′,4′,5′-triol]

inhibition at 0.01 µM [1]: 30.1 ± 1%
inhibition at 0.1 µM [1]: 22.6 ± 8.3%
SMILES: CC(=O)c1ccc(Cc2cc3c(cc2Cl)CO[C@]32O[C@H](C)[C@@H](O)[C@H](O)[C@H]2O)s1 [Example A117, 1-(5-(((1S,3′R,4′S,5′S,6′R)-5-chloro-3′,4′,5′-trihydroxy-6′-methyl-3′,4′,5′,6′-tetrahydro-3H-spiro[isobenzofuran-1,2′-pyran]-6-yl)methyl)thiophene-2-yl)ethanone]

inhibition at 0.01 µM [1]: 4 ± 9.2%
inhibition at 0.1 µM [1]: 22.8 ± 8.1%
SMILES: CCc1ccc(C(O)c2cc3c(cc2Cl)CO[C@]32O[C@H](C)[C@@H](O)[C@H](O)[C@H]2O)s1 (some centres unmarked) [Example A120]

inhibition at 0.01 µM [1]: 59.6 ± 11.3%
inhibition at 0.1 µM [1]: 103 ± 2.8%
SMILES: CCOc1ccc(Cc2cc([C@@H]3O[C@H](CO)[C@@H](O)[C@H](O)[C@H]3O)ccc2Cl)cc1 [dapagliflozin, reference compound]
The total amount of glucose excreted (SD rats; Table 3): 1860.61 ± 575.28
Urine glucose concentration (SD rats; Table 3): 251.92 ± 52.98
Urine volume (SD rats; Table 3, in mL): 40.75 ± 8.60
The total amount of glucose excreted (SD rats; Table 4): 1822.21 ± 112.97
Urine glucose concentration (SD rats; Table 4): 382.41 ± 35.64
Urine volume (SD rats; Table 4, in mL): 26.67 ± 3.01
random blood glucose week 1 (db/db mice; 1 mg/kg once daily oral): 14.9 ± 0.9 mmol/L
random blood glucose week 2 (db/db mice; 1 mg/kg once daily oral): 14.9 ± 1.1 mmol/L
random blood glucose week 3 (db/db mice; 1 mg/kg once daily oral): 14.9 ± 1.0 mmol/L
random blood glucose week 4 (db/db mice; 1 mg/kg once daily oral): 14.4 ± 1.1 mmol/L
random blood glucose Pre (db/db mice; 1 mg/kg once daily oral): 19.3 ± 1.2 mmol/L
random blood glucose week 1 (db/db mice; 3 mg/kg once daily oral): 13.4 ± 0.8 mmol/L
random blood glucose week 2 (db/db mice; 3 mg/kg once daily oral): 14.1 ± 0.8 mmol/L
random blood glucose week 3 (db/db mice; 3 mg/kg once daily oral): 15.2 ± 1.2 mmol/L
random blood glucose week 4 (db/db mice; 3 mg/kg once daily oral): 11.7 ± 1.0 mmol/L
random blood glucose Pre (db/db mice; 3 mg/kg once daily oral): 17.5 ± 1.2 mmol/L
Hypoglycemic rate % week 1 (db/db mice; 1 mg/kg once daily oral): 24.0%
Hypoglycemic rate % week 2 (db/db mice; 1 mg/kg once daily oral): 23.6%
Hypoglycemic rate % week 3 (db/db mice; 1 mg/kg once daily oral): 26.4%
Hypoglycemic rate % week 4 (db/db mice; 1 mg/kg once daily oral): 30.5%
Hypoglycemic rate % week 1 (db/db mice; 3 mg/kg once daily oral): 32.0%
Hypoglycemic rate % week 2 (db/db mice; 3 mg/kg once daily oral): 27.7%
Hypoglycemic rate % week 3 (db/db mice; 3 mg/kg once daily oral): 25.4%
Hypoglycemic rate % week 4 (db/db mice; 3 mg/kg once daily oral): 43.8%
